Results: patent US8017612B2, “Piperazine compound and use thereof as a HCV polymerase inhibitor” (priority 2006, dated 2011)

Legend:
[1] = target: T1, HCV polymerase (NS5B) type 1b (Hepatitis C virus genotype 1b, UniProt P26663); assay: Assay of enzyme (HCV polymerase) inhibitory activity, type 1b enzyme; assay type: biochemical, HCV BK strain (type 1b); conditions: HCV polymerase inhibitory activity (IC50), 1b, type 1b enzyme 0.5 μg/ml, 25° C., 60 min
T1 construct: a region encoding NS5B (J Virol 1991 March, 65(3), 1105-13, 544 amino acids after deletion of 47 amino acids on the C-terminal); 6xHis (C); made in house; host or cells: Escherichia coli
How it was run: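 IC50 derived from [3H]UTP incorporation into TCA-insoluble RNA, compared with and without test compound. Reaction (25 °C, 60 min, Tris pH 7.5, 5 mM MgCl2): E. coli-expressed 1b NS5B Δ47 with His tag at 0.5 μg/ml, 5 μg/ml run-off substrate RNA, ATP/GTP/CTP 50 μM, UTP 2 μM.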

[2] = target: T2, HCV polymerase (NS5B) type 1a (Hepatitis C virus genotype 1a, UniProt P26664); assay: Assay of enzyme (HCV polymerase) inhibitory activity, type 1a enzyme; assay type: biochemical, HCV type 1a (cloned from the blood of patients); conditions: HCV polymerase inhibitory activity (IC50), 1a, type 1a enzyme 1.5 μg/ml, 25° C., 60 min
T2 construct: made in house; host or cells: Escherichia coli (by the 'similar method' of the 1b enzyme)
How it was run: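 Reactions ran 60 min at 25° C in 20 mM Tris-HCl pH 7.5, 5 mM MgCl2, 50 mM NaCl, holding genotype 1a NS5B (1.5 μg/ml, Δ47 C-terminus, 6His), substrate RNA 5 μg/ml, UTP 2 μM with tritiated UTP and other NTPs 50 μM. IC50 derived from incorporated radiolabel in filter-trapped RNA relative to uninhibited reaction.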

SMILES	IC50 [1] [nM]	IC50 [2] [nM]
Cc1nnc(NC(=O)N2CCN(S(=O)(=O)c3ccc(OC(F)(F)F)cc3)[C@@H](C(=O)NCc3ccc(C(F)(F)C(F)(F)F)cc3)C2)s1 [Example 552, (R)-4-(4-trifluoromethoxy-benzenesulfonyl)-piperazine-1,3-dicarboxylic acid 1-[(5-methyl-[1,3,4]thiadiazol-2-yl)-amide] 3-(4-pentafluoroethyl-benzylamide)]	100 to 1000	> 1000
CCC(F)(F)c1ccc(CNC(=O)[C@H]2CN(C(=O)Nc3cc(C)ns3)CCN2S(=O)(=O)c2ccc(OC(F)(F)F)cc2)cc1 [Example 553, (R)-4-(4-trifluoromethoxy-benzenesulfonyl)-piperazine-1,3-dicarboxylic acid 3-[4-(1,1-difluoro-propyl)-benzylamide] 1-[(3-methyl-isothiazol-5-yl)-amide]]	< 100	< 100
CCC(F)(F)c1ccc(CNC(=O)[C@H]2CN(C(=O)Nc3nccs3)CCN2S(=O)(=O)c2ccc(OC(F)(F)F)cc2)cc1 [Example 554, (R)-4-(4-trifluoromethoxy-benzenesulfonyl)-piperazine-1,3-dicarboxylic acid 3-[4-(1,1-difluoro-propyl)-benzylamide] 1-thiazol-2-ylamide]	< 100	100 to 1000
CCC(F)(F)c1ccc(CNC(=O)[C@H]2CN(C(=O)Nc3ccnc(C(F)(F)F)c3)CCN2S(=O)(=O)c2ccc(OC(F)(F)F)cc2)cc1 [Example 555, (R)-4-(4-trifluoromethoxy-benzenesulfonyl)-piperazine-1,3-dicarboxylic acid 3-[4-(1,1-difluoro-propyl)-benzylamide] 1-[(2-trifluoromethyl-pyridin-4-yl)-amide]]	100 to 1000	100 to 1000
CCCc1ccc(CNC(=O)[C@H]2CN(c3cnc4c(n3)NC(=O)OC4)CCN2S(=O)(=O)c2ccc(OC(F)(F)F)cc2)cc1 [Example 556, (R)-4-(2-oxo-1,4-dihydro-2H-pyrazino[2,3-d][1,3]oxazin-7-yl)-1-(4-trifluoromethoxy-benzenesulfonyl)-piperazine-2-carboxylic acid 4-propyl-benzylamide]	< 100	< 100
CCCc1ccc(CNC(=O)[C@H]2CN(c3nc4c(s3)CNCC4)CCN2S(=O)(=O)c2ccc(OC(F)(F)F)cc2)cc1 [Example 557, (R)-4-(4,5,6,7-tetrahydro-thiazolo[5,4-c]pyridin-2-yl)-1-(4-trifluoromethoxy-benzenesulfonyl)-piperazine-2-carboxylic acid 4-propyl-benzylamide]	< 100	< 100
CC(C)(C)c1ccc(CNC(=O)[C@H]2CN(c3cnc(CN4CCCC4)cn3)CCN2S(=O)(=O)c2ccc(OC(F)(F)F)cc2)cc1 [Example 558, (R)-5′-pyrrolidin-1-ylmethyl-4-(4-trifluoromethoxy-benzenesulfonyl)-3,4,5,6-tetrahydro-2H-[1,2′]bipyrazinyl-3-carboxylic acid 4-tert-butyl-benzylamide]	< 100	100 to 1000
CCC(F)(F)c1ccc(CNC(=O)[C@H]2CN(c3cnc(C(=O)O)cn3)CCN2S(=O)(=O)c2ccc(OC(F)(F)F)cc2)cc1 [Example 559, (R)-3-[4-(1,1-difluoro-propyl)-benzylcarbamoyl]-4-(4-trifluoromethoxy-benzenesulfonyl)-3,4,5,6-tetrahydro-2H-[1,2′]bipyrazinyl-5′-carboxylic acid]	< 100	< 100
CCC(F)(F)c1ccc(CNC(=O)[C@H]2CN(c3cnc(CO)cn3)CCN2S(=O)(=O)c2ccc(OC(F)(F)F)cc2)cc1 [Example 560, (R)-5′-hydroxymethyl-4-(4-trifluoromethoxy-benzenesulfonyl)-3,4,5,6-tetrahydro-2H-[1,2′]bipyrazinyl-3-carboxylic acid 4-(1,1-difluoro-propyl)-benzylamide]	< 100	< 100
CCCc1ccc(CNC(=O)[C@H]2CN(c3nc4c(s3)CN(Cc3ccccc3)CC4)CCN2S(=O)(=O)c2ccc(OC(F)(F)F)cc2)cc1 [Example 561, (R)-4-(5-benzyl-4,5,6,7-tetrahydro-thiazolo[5,4-c]pyridin-2-yl)-1-(4-trifluoromethoxy-benzenesulfonyl)-piperazine-2-carboxylic acid 4-propyl-benzylamide]	< 100	< 100
CCCc1ccc(CNC(=O)[C@H]2CN(c3nc(CO)c(CO)s3)CCN2S(=O)(=O)c2ccc(OC(F)(F)F)cc2)cc1 [Example 562, (R)-4-(4,5-bis-hydroxymethyl-thiazol-2-yl)-1-(4-trifluoromethoxy-benzenesulfonyl)-piperazine-2-carboxylic acid 4-propyl-benzylamide]	< 100	< 100
CCCc1ccc(CNC(=O)[C@H]2CN(c3nc(C)ns3)CCN2S(=O)(=O)c2ccc(OC(F)(F)F)cc2)cc1 [Example 563, (R)-4-(3-methyl-[1,2,4]thiadiazol-5-yl)-1-(4-trifluoromethoxy-benzenesulfonyl)-piperazine-2-carboxylic acid 4-propyl-benzylamide]	< 100	< 100
CCc1ccc(S(=O)(=O)N2CCN(c3cnc(C(=O)O)cn3)C[C@@H]2C(=O)NCc2ccc(C(F)(F)CC)cc2)cc1 [Example 564, (R)-3-[4-(1,1-difluoro-propyl)-benzylcarbamoyl]-4-(4-ethyl-benzenesulfonyl)-3,4,5,6-tetrahydro-2H-[1,2′]bipyrazinyl-5′-carboxylic acid]	< 100	< 100
CCC(F)(F)c1ccc(CNC(=O)[C@H]2CN(C(=O)Nc3nc[nH]n3)CCN2S(=O)(=O)c2ccc(OC(F)(F)F)cc2)cc1 [Example 565, (R)-4-(4-trifluoromethoxy-benzenesulfonyl)-piperazine-1,3-dicarboxylic acid 3-[4-(1,1-difluoro-propyl)-benzylamide] 1-[(1H-[1,2,4]triazol-3-yl)-amide]]	< 100	100 to 1000
CCC(F)(F)c1ccc(CNC(=O)[C@H]2CN(C(=O)Nc3nn[nH]n3)CCN2S(=O)(=O)c2ccc(OC(F)(F)F)cc2)cc1 [Example 566, (R)-4-(4-trifluoromethoxy-benzenesulfonyl)-piperazine-1,3-dicarboxylic acid 3-[4-(1,1-difluoro-propyl)-benzylamide] 1-[(2H-tetrazol-5-yl)-amide]]	< 100	100 to 1000
CCC(F)(F)c1ccc(CNC(=O)[C@H]2CN(C(=O)Nc3csc(C)n3)CCN2S(=O)(=O)c2ccc(OC(F)(F)F)cc2)cc1 [Example 567, (R)-4-(4-trifluoromethoxy-benzenesulfonyl)-piperazine-1,3-dicarboxylic acid 3-[4-(1,1-difluoro-propyl)-benzylamide] 1-[(2-methyl-thiazol-4-yl)-amide]]	< 100	100 to 1000
CCC(F)(F)c1ccc(CNC(=O)[C@H]2CN(C(=O)n3nc(C)nc3N)CCN2S(=O)(=O)c2ccc(OC(F)(F)F)cc2)cc1 [Example 568, (R)-4-(5-amino-3-methyl-[1,2,4]triazole-1-carbonyl)-1-(4-trifluoromethoxy-benzenesulfonyl)-piperazine-2-carboxylic acid 4-(1,1-difluoro-propyl)-benzylamide]	> 1000	> 1000
CCC(F)(F)c1ccc(CNC(=O)[C@H]2CN(C(=O)Nc3ccn(C)n3)CCN2S(=O)(=O)c2ccc(OC(F)(F)F)cc2)cc1 [Example 569, (R)-4-(4-trifluoromethoxy-benzenesulfonyl)-piperazine-1,3-dicarboxylic acid 3-[4-(1,1-difluoro-propyl)-benzylamide] 1-[(1-methyl-1H-pyrazol-3-yl)-amide]]	< 100	100 to 1000
CC(C)(C)c1ccc(CNC(=O)[C@H]2CN(c3ncc(CO)s3)CCN2S(=O)(=O)c2ccc(OC(F)(F)F)cc2)cc1 [Example 570, (R)-4-(5-hydroxymethyl-thiazol-2-yl)-1-(4-trifluoromethoxy-benzenesulfonyl)-piperazine-2-carboxylic acid 4-tert-butyl-benzylamide]	< 100	< 100
CCCc1ccc(CNC(=O)[C@H]2CN(c3cc(Cl)ncn3)CCN2S(=O)(=O)c2ccc(OC(F)(F)F)cc2)cc1 [Example 571, (R)-4-(6-chloro-pyrimidin-4-yl)-1-(4-trifluoromethoxy-benzenesulfonyl)-piperazine-2-carboxylic acid 4-propyl-benzylamide]	< 100	< 100
CCCc1ccc(CNC(=O)[C@H]2CN(c3ccncn3)CCN2S(=O)(=O)c2ccc(OC(F)(F)F)cc2)cc1 [Example 572, (R)-4-pyrimidin-4-yl-1-(4-trifluoromethoxy-benzenesulfonyl)-piperazine-2-carboxylic acid 4-propyl-benzylamide]	< 100	< 100
CC(C)(C)c1ccc(CNC(=O)[C@H]2CN(c3nc4c(s3)C(=O)NC4=O)CCN2S(=O)(=O)c2ccc(OC(F)(F)F)cc2)cc1 [Example 573, (R)-4-(4,6-dioxo-5,6-dihydro-4H-pyrrolo[3,4-d]thiazol-2-yl)-1-(4-trifluoromethoxy-benzenesulfonyl)-piperazine-2-carboxylic acid 4-tert-butyl-benzylamide]	< 100	< 100
